Experiments:
[1] = biological target: T1, LH-RH receptors (Rattus norvegicus, UniProt P30969); test: stimulation of testosterone secretion after oral gavage (plasma testosterone by radioimmunoassay); type: in vivo, Sprague-Dawley rats; design: from tissue; host or cells: pituitary of living adult male Sprague-Dawley rats (in vivo); details: for total plasma testosterone (nmol/l) (m ± sem): 2 nmoles/rat by oral gavage, blood 2 hours after administration, male rats; for stimulation of testosterone secretion: 5 Ng/kg oral, 2 hours, Figure 3
T1 sequence (P30969 1-327): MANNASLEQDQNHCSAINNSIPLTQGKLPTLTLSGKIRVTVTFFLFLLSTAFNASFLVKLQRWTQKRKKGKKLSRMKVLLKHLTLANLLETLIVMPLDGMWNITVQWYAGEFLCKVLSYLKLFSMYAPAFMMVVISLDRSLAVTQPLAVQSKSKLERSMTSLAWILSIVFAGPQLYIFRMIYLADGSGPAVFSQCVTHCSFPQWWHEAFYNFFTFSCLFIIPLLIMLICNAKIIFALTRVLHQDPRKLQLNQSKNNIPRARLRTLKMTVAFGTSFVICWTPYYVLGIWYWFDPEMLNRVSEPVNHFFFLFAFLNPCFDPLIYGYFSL
Method: For screening purposes, blood samples were drawn 2 hours after oral administration of a common dose of 2 nmoles/rat of LH-RH peptide agonists in an aqueous solution containing 10 or 100 mM of α-CD (Tables 1 and 2; Figures 1, 4 and 6). […] Total plasma testosterone (Diagnostic System Laboratories) and LH (Amersham Pharmacia Biotech) determinations were performed by radioimmunoassay. In screening 2-hour experiments, each group comprised between 6 and 8 rats; each time point of the kinetic study was studied on four animals.
All α-CD derivatives were purchased from Cyclolab (Budapest, Hungary).
(§1) Then, the α-CD solution was added to fill the flask up to 10 ml to make a 2 nmol/ml solution of which 1ml was administered by oral gavage to each rat.
After overnight magnetic stirring at room temperature, each solution was given to rats by oral gavage in a 4 ml/kg volume to administer the same dose of 5 µg/kg of example 2 without or with increasing concentrations of α-CD.

[2] = biological target: T1, LH-RH receptors; test: stimulation of LH secretion after oral gavage (plasma LH by radioimmunoassay); type: in vivo, Sprague-Dawley rats; design: from tissue; host or cells: pituitary of living adult male Sprague-Dawley rats (in vivo); details: 2 nmoles/rat by oral gavage, blood 2 hours after administration, male rats
Method: […] […] Total plasma testosterone (Diagnostic System Laboratories) and LH (Amersham Pharmacia Biotech) determinations were performed by radioimmunoassay. In screening 2-hour experiments, each group comprised between 6 and 8 rats; each time point of the kinetic study was studied on four animals.
Two hours after administration, plasma LH levels were measured on eight rats per dose group (Figure 7).
as §1

[3] = biological target: T1, LH-RH receptors; test: inhibition of ovulation by oral administration (ova in oviduct on day of expected estrus); type: in vivo, Wistar rats; design: from tissue; host or cells: pituitary of living adult female Wistar rats (in vivo)
Method: The peptides according to the general formula (I') exert an antagonist activity upon the LH-RH receptors in vivo, resulting in particular in the inhibition of ovulation.
The influence of α-, β- and γ-CD was tested on the activity of antide (an example of LH-RH peptide antagonist) when orally admininisted by gavage to normally cycling adult female Wistar rats between 1:30 and 3:00 p.m. on the day of proestrus, after at least two full regular estrous cycles as monitored by daily vaginal smears. The antiovulatory efficacy was checked the next morning, on the day of expected estrus, by looking for ova in the oviduct of treated females. The presence of at least one ovum attested that some degree of spontaneous ovulation did occur, and only the total absence of ovum was considered as effective LH-RH antagonist-induced inhibition of ovulation. Antide was solubilized in a vehicle consisting of 20% (vol/vol) propylene glycol in water already containing […], to which 10% (wt/vol) of either α-, β- or γ-CD was then added.
Each 5 mg powder vial of antide (from Bachem, Bubendorf, Switzerland) containing 4.2434 mg net peptide was dissolved in a mixture of 2.122 ml propylene glycol with 8.487 ml water containing 0.1% bovine albumin. To each 10.609 ml solution of antide (400 µg/ml), 1.061 g of either α-, β- or γ-CD was directly added to obtain a 10% concentration. Each female rat received the same volume of 1 ml of test formulation by gavage.
The same volume of administration was used for the doses of 200 and 600 µg/rat.

[4] = without α-CD (standard aqueous vehicle)
[5] = vehicle + α-CD (10%), antide 200 µg/rat p.o.
[6] = vehicle + α-CD (10%), antide 400 µg/rat p.o.
[7] = vehicle + α-CD (10%), antide 600 µg/rat p.o.
[8] = vehicle + β-CD (10%), antide 400 µg/rat p.o.
[9] = vehicle + γ-CD (10%), antide 400 µg/rat p.o.
[10] = vehicle only, antide 200 µg/rat p.o.
[11] = vehicle only, antide 400 µg/rat p.o.
[12] = vehicle only, antide 600 µg/rat p.o.

Molecule | total plasma testosterone (nmol/l) (m ± sem) ([1]; with α-CD (100 mM solution)) | total plasma testosterone (nmol/l) (m ± sem) [1, 4] | total plasma LH (ng/ml) (m ± sem) ([2]; with α-CD (100 mM solution)) | total plasma LH (ng/ml) (m ± sem) ([2]; without α-CD) | other results
goserelin | 66.5 ± 6.19 nmol/L | 21.4 ± 5.99 nmol/L | – | – | –
[(S)spirolactam(Pro^6, Npg^7), desGly^10-ProNEt^9]LH-RH [Example 1] | 58.0 ± 8.75 nmol/L | 40.1 ± 6.78 nmol/L | 7.1 ± 1.68 ng/mL | 1.5 ± 0.19 ng/mL | –
CCNC(=O)[C@@H]1CCCN1C(=O)[C@H](CCCNC(=N)N)NC(=O)[C@H](CC(C)(C)C)NC(=O)[C@@H](C)NC(=O)[C@H](Cc1ccc(O)cc1)NC(=O)[C@H](CO)NC(=O)[C@H](Cc1c[nH]c2ccccc12)NC(=O)[C@H](Cc1c[nH]cn1)NC(=O)[C@@H]1CCC(=O)N1 [Example 2, [D-Ala^6, Npg7, desGly^10-ProNEt^9]LH-RH] | 72.8 ± 4.64 nmol/L | 23.0 ± 8.54 nmol/L | 19.7 ± 3.70 ng/mL | 1.6 ± 0.14 ng/mL | stimulation of testosterone secretion ([1]; with 5% (51.4 mM) α-CD): did enhance; stimulation of testosterone secretion ([1]; with 10% (103 mM) as well as 14% (144 mM) α-CD): maximal level
deslorelin | marked potency | 9.7 ± 2.41 nmol/L | – | – | total plasma testosterone (nmol/l) (m ± sem) ([1]; with α-CD (100 mM solution), listed as Deslorelin (α-CD)): 48.2 ± 7.29 nmol/L; total plasma testosterone (nmol/l) (m ± sem) ([1]; without α-CD (standard aqueous vehicle), listed as deslorelin): inactive
antide | – | – | – | – | influence of Beta- and γ-CD on the minimal activity of antide ([3]; combined with β- or γ-CD (10%), dose level of 400): no influence; animals showing inhibition of ovulation ([3]; out of 22 animals, vehicle only, threshold dose of 400): 3; n ovulations/ N treated rats [3, 5]: 6/8; percentage of inhibition [3, 5]: 25%; n ovulations/ N treated rats [3, 6]: 6/22; percentage of inhibition [3, 6]: 73%; n ovulations/ N treated rats [3, 7]: 2/8; percentage of inhibition [3, 7]: 75%; n ovulations/ N treated rats [3, 8]: 7/7; percentage of inhibition [3, 8]: 0%; n ovulations/ N treated rats [3, 9]: 7/7; percentage of inhibition [3, 9]: 0%; threshold effective dose by oral administration ([3]; vehicle only (no cyclodextrin), inhibition of ovulation): 400 µg/rat; n ovulations/ N treated rats [3, 10]: 8/8; percentage of inhibition [3, 10]: 0%; n ovulations/ N treated rats [3, 11]: 19/22; percentage of inhibition [3, 11]: 14%; n ovulations/ N treated rats [3, 12]: 5/8; percentage of inhibition [3, 12]: 44%

Further lines, with some results ahead:

total plasma testosterone (nmol/l) (m ± sem) ([1]; with α-CD (100 mM solution)) | total plasma testosterone (nmol/l) (m ± sem) [1, 4] | total plasma LH (ng/ml) (m ± sem) ([2]; with α-CD (100 mM solution)) | total plasma LH (ng/ml) (m ± sem) ([2]; without α-CD) | Molecule | other results
61.8 ± 5.10 nmol/L | 28.3 ± 4.56 nmol/L | – | – | CCNC(=O)[C@@H]1CCCN1C(=O)[C@H](CCCNC(=N)N)NC(=O)[C@H](CC(C)C)NC(=O)[C@@H](C)NC(=O)[C@H](Cc1ccc(O)cc1)NC(=O)[C@H](CO)NC(=O)[C@H](Cc1c[nH]c2ccccc12)NC(=O)[C@H](Cc1c[nH]cn1)NC(=O)[C@@H]1CCC(=O)N1 [Example 6, [D-Ala^6, desGly^10-ProNet^9]LH-RH] | –
67.9 ± 9.11 nmol/L | 30.1 ± 5.86 nmol/L | 16.1 ± 5.22 ng/mL | 1.4 ± 0.17 ng/mL | CCNC(=O)[C@@H]1CCCN1C(=O)[C@H](CCCNC(=N)N)NC(=O)[C@H](CC(C)(C)C)NC(=O)[C@@H](Cc1ccccc1)NC(=O)[C@H](Cc1ccc(O)cc1)NC(=O)[C@H](CO)NC(=O)[C@H](Cc1c[nH]c2ccccc12)NC(=O)[C@H](Cc1c[nH]cn1)NC(=O)[C@@H]1CCC(=O)N1 [Example 4, [D-Phe^6, Npg7, desGly^10-ProNEt^9]LH-RH] | –
52.1 ± 6.99 nmol/L | 15.8 ± 4.24 nmol/L | 3.2 ± 0.56 ng/mL | 1.4 ± 0.10 ng/mL | [Npg^7]triptorelin [Example 5] | –
61.9 ± 6.01 nmol/L | 25.8 ± 3.14 nmol/L | 10.1 ± 2.54 ng/mL | 1.4 ± 0.10 ng/mL | triptorelin | –

— patent EP1117420B1, “PHARMACEUTICAL COMPOSITIONS BASED ON ALPHA-CYCLODEXTRIN FOR THE ORAL ADMINISTRATION OF LH-RH ANALOGUES” (LABORATOIRE THERAMEX S.A., priority 1998, dated 2000)
